US20090143279A1 (priority 2007, published 2009)
Like-named read-outs stand apart in the source and are kept apart here.

Tests used:
[1] = tested on: cellular dehydrogenase activity; conditions: for MTT (composite Z-score): normalized score vs mock-treated (DMSO) wells
nuOXPHOS transcripts = format: cell-based, mouse; conditions: for nucOX (composite Z-score): normalized score vs mock-treated (DMSO) wells
cytochrome c = format: cell-based, mouse; conditions: for cyt c (composite Z-score): normalized score vs mock-treated (DMSO) wells
OXPHOS gene expression = format: cell-based, mouse; conditions: for GE-HTS (composite Z-score): normalized score vs mock-treated (DMSO) wells
mtOXPHOS transcripts = format: cell-based, mouse; conditions: for mitoOX (composite Z-score): normalized score vs mock-treated (DMSO) wells
reactive oxygen species = format: cell-based, mouse; conditions: for ROS (composite Z-score): normalized score vs mock-treated (DMSO) wells
[2] = tested on: mitochondrial membrane potential; format: cell-based, mouse; conditions: for ΔΨm (composite Z-score): normalized score vs mock-treated (DMSO) wells
C2C12 myotubes = conditions: for Viability (composite Z-score): normalized score vs mock-treated (DMSO) wells
[3] = normalized composite Z-score vs mock-treated (DMSO) wells, Conc 20 μM
[4] = composite Z-score vs DMSO, Conc 20 μM
[5] = composite Z-score vs mock-treated (DMSO) wells, Conc 20 μM
[6] = 20 μM, composite Z-score vs DMSO

## COc1ccc([C@H]2Oc3cc(OC)cc(OC)c3C[C@H]2O)cc1 [epiafzelechin trimethyl ether]
[1]; [3]
  MTT: −0.884
nuOXPHOS transcripts; [3]
  nucOX: −0.134
Cytochrome c; [3]
  cyt c: 1.099
OXPHOS gene expression; [3]
  GE-HTS: 0.019
mtOXPHOS transcripts; [3]
  mitoOX: 0.350
Reactive oxygen species; [3]
  ROS: −0.190
[2]; [3]
  ΔΨm: −0.324
C2C12 myotubes; [3]
  Viability: 0.557

## C[C@]12CCC3C(CC[C@H]4C[C@H](O)CC[C@]34C)C1CC[C@@H]2O (stereo partly drawn) [epiandrostanediol]
[1]; [4]
  MTT: −0.207
nuOXPHOS transcripts; [4]
  nucOX: −0.203
Cytochrome c; [4]
  cyt c: −0.201
OXPHOS gene expression; [4]
  GE-HTS: −0.069
mtOXPHOS transcripts; [4]
  mitoOX: 0.190
Reactive oxygen species; [4]
  ROS: 0.113
[2]; [4]
  ΔΨm: −0.156
C2C12 myotubes; [4]
  Viability: 1.143

## Oc1cc(O)c2c(c1)O[C@H](c1ccc(O)c(O)c1)[C@H](O)C2 [epicatechin, reference compound]
[1]; [4]
  MTT: −1.915
[1]; [3]
  MTT: −1.556
nuOXPHOS transcripts; [4]
  nucOX: 0.310
nuOXPHOS transcripts; [3]
  nucOX: −0.773
Cytochrome c
  cyt c: 0.446
Cytochrome c; [4]
  cyt c: 0.110
Cytochrome c; [3]
  cyt c: 0.850
OXPHOS gene expression; [4]
  GE-HTS: 0.431
OXPHOS gene expression; [3]
  GE-HTS: −0.754
mtOXPHOS transcripts; [4]
  mitoOX: 0.641
mtOXPHOS transcripts; [3]
  mitoOX: −0.631
Reactive oxygen species; [4]
  ROS: −0.465
Reactive oxygen species; [3]
  ROS: −0.199
[2]; [4]
  ΔΨm: −2.452
[2]; [3]
  ΔΨm: −1.802
C2C12 myotubes; [4]
  Viability: −1.380
C2C12 myotubes; [3]
  Viability: 0.687

## O=C(Oc1cc(O)cc2c1C[C@@H](OC(=O)c1cc(O)c(O)c(O)c1)[C@@H](c1cc(O)c(O)c(O)c1)O2)c1cc(O)c(O)c(O)c1 [epigallocatechin 3,5-digallate]
[1]; [3]
  MTT: −1.667
nuOXPHOS transcripts; [3]
  nucOX: −1.625
Cytochrome c; [3]
  cyt c: 1.040
OXPHOS gene expression; [3]
  GE-HTS: −1.581
mtOXPHOS transcripts; [3]
  mitoOX: −1.133
Reactive oxygen species; [3]
  ROS: 0.118
[2]; [3]
  ΔΨm: −2.135
C2C12 myotubes; [3]
  Viability: 0.969

## C/C1=C\CC(C)(C)/C=C/CC2(C)OC2CC1 (stereo not drawn) [epoxy (1,11)humulene]
[1]; Conc 20 μM
  MTT (composite Z-score): −0.802
nuOXPHOS transcripts; Conc 20 μM
  nucOX (composite Z-score): −1.115
Cytochrome c; Conc 20 μM
  cyt c (composite Z-score): 0.979
OXPHOS gene expression; Conc 20 μM
  GE-HTS (composite Z-score): −1.172
mtOXPHOS transcripts; Conc 20 μM
  mitoOX (composite Z-score): −1.021
Reactive oxygen species; Conc 20 μM
  ROS (composite Z-score): −0.355
[2]; Conc 20 μM
  ΔΨm (composite Z-score): −0.509
C2C12 myotubes; Conc 20 μM
  Viability (composite Z-score): 1.157

## C[C@@H]1C(=O)O[C@H]2[C@H]1CC[C@@]1(C)C=CC(=O)[C@@]3(C)O[C@@]213 [epoxy (4,5alpha)-4,5-dihydrosantonin]
[1]; [5]
  MTT: 0.041
nuOXPHOS transcripts; [5]
  nucOX: −0.614
Cytochrome c; [5]
  cyt c: 0.552
OXPHOS gene expression; [5]
  GE-HTS: −0.736
mtOXPHOS transcripts; [5]
  mitoOX: −0.901
Reactive oxygen species; [5]
  ROS: −1.367
[2]; [5]
  ΔΨm: 0.199
C2C12 myotubes; [5]
  Viability: 0.133

## CC(=O)O[C@@H]1CC2C(C)(C)C(=O)C3OC3[C@]2(C)C2CC[C@@]3(C)[C@H](c4ccoc4)OC(=O)C4OC43[C@@]21C (stereo partly drawn) [epoxygedunin]
[1]; Conc 20 μM
  MTT (composite Z-score): −1.657
nuOXPHOS transcripts; Conc 20 μM
  nucOX (composite Z-score): −1.130
Cytochrome c; Conc 20 μM
  cyt c (composite Z-score): 0.248
OXPHOS gene expression; Conc 20 μM
  GE-HTS (composite Z-score): −1.146
mtOXPHOS transcripts; Conc 20 μM
  mitoOX (composite Z-score): −1.005
Reactive oxygen species; Conc 20 μM
  ROS (composite Z-score): 0.409
[2]; Conc 20 μM
  ΔΨm (composite Z-score): 0.274
C2C12 myotubes; Conc 20 μM
  Viability (composite Z-score): 0.052

## C[C@]12CC[C@H]3C(=CCc4cc(O)ccc43)[C@@H]1CCC2=O [equilin]
[1]
  MTT: −2.270
nuOXPHOS transcripts
  nucOX: −0.538
Cytochrome c
  cyt c: −0.069
OXPHOS gene expression
  GE-HTS: −0.626
mtOXPHOS transcripts
  mitoOX: −0.676
Reactive oxygen species
  ROS: 0.259
[2]
  ΔΨm: −0.408
C2C12 myotubes
  Viability: −0.882

## C=C1CC[C@H](O)C/C1=C/C=C1\CCC[C@]2(C)[C@@H]([C@H](C)/C=C/[C@H](C)C(C)C)CC[C@@H]12 [ergocalciferol]
[1]; [6]
  MTT: −1.658
nuOXPHOS transcripts; [6]
  nucOX: 0.723
Cytochrome c; [6]
  cyt c: −0.118
OXPHOS gene expression; [6]
  GE-HTS: 0.661
mtOXPHOS transcripts; [6]
  mitoOX: 0.357
Reactive oxygen species; [6]
  ROS: 1.541
[2]; [6]
  ΔΨm: −0.449
C2C12 myotubes; [6]
  Viability: 0.372

## CC(C)[C@@H](C)C=C[C@@H](C)[C@H]1CC[C@H]2C3=CCC4CC(=O)CC[C@]4(C)[C@H]3CC[C@]12C (stereo partly drawn) [ergosta-7,22-dien-3-one]
[1]; [4]
  MTT: −2.474
nuOXPHOS transcripts; [4]
  nucOX: −0.764
Cytochrome c; [4]
  cyt c: 0.221
OXPHOS gene expression; [4]
  GE-HTS: −0.708
mtOXPHOS transcripts; [4]
  mitoOX: −0.415
Reactive oxygen species; [4]
  ROS: 0.912
[2]; [4]
  ΔΨm: −0.544
C2C12 myotubes; [4]
  Viability: −0.892

## CC(C)[C@@H](C)/C=C/[C@@H](C)[C@H]1CC[C@H]2C3=CC=C4C[C@@H](O)CC[C@]4(C)[C@H]3CC[C@]12C [ergosterol]
[1]; [4]
  MTT: −1.864
nuOXPHOS transcripts; [4]
  nucOX: 0.420
Cytochrome c; [4]
  cyt c: 0.386
OXPHOS gene expression; [4]
  GE-HTS: 0.231
mtOXPHOS transcripts; [4]
  mitoOX: −0.240
Reactive oxygen species; [4]
  ROS: −0.198
[2]; [4]
  ΔΨm: −0.489
C2C12 myotubes; [4]
  Viability: −0.792

## CS(=O)(=O)CCCCN=C=S [erysolin]
[1]; Conc 20 μM
  MTT (composite Z-score): −3.551
nuOXPHOS transcripts; Conc 20 μM
  nucOX (composite Z-score): −0.850
Cytochrome c; Conc 20 μM
  cyt c (composite Z-score): −1.868
OXPHOS gene expression; Conc 20 μM
  GE-HTS (composite Z-score): −0.913
mtOXPHOS transcripts; Conc 20 μM
  mitoOX (composite Z-score): −0.862
Reactive oxygen species; Conc 20 μM
  ROS (composite Z-score): −2.871
[2]; Conc 20 μM
  ΔΨm (composite Z-score): −0.785
C2C12 myotubes; Conc 20 μM
  Viability (composite Z-score): −4.103
